Results from patent publication US5039670A, “Antithrombotic substituted cycloalkano(B)dihydroindole- and -indole-sulphonamides and use” (Bayer Aktiengesellschaft, priority 1989, dated 1991).

Each compound was assayed on thrombocyte aggregation (assay: Inhibition of collagen-triggered thrombocyte aggregation in platelet-rich citrated plasma (turbidometry, aggregometer)). Details: Homo sapiens, 0.1 h, 37° C., response after 6 minutes, read-out: EC (limiting concentration, range of the minimum effective concentration).
Type: cell-based
Experimental: To determine the action as an inhibitor of thrombocyte aggregation, blood was used from healthy subjects of both sexes. 9 parts of blood were treated with one part of 3.8% strength aqueous sodium citrate solution as an anticoagulant. From this blood, platelet-rich citrated plasma (PRP)^1 is obtained (Jurgens/Beller, Klinische Methoden der Blutgerinnungsanalyse [Clinical Methods in Blood Coagulation Analysis]; Thieme Verlag, Stuttgart, 1959).
For these assays, 0.8 ml of (PRP)^1 and 0.1 ml of the active compound solution were preincubated at 37° C. in a water bath. The thrombocyte aggregation was then determined in an aggregometer at 37° C. (Therapeutische Berichte 47, 80-86, 1975) by means of turbidometry (Born, G.V.R., J. Physiol. (London), 162, 67, 1962). For this purpose, the preincubated sample was treated with 0.1 ml of collagen, an agent which triggers aggregations. The (PRP)^1 sample underwent changes in optical density, which was recorded during a period of 6 minutes, and the response was determined after 6 minutes. From this, the inhibition compared with the control is calculated as a percentage. The limiting concentration given is the range of the minimum effective concentration.

Row | Compound | minimal effective concentration [µg/mL]
1 | O=C(O)CCn1c2c(c3cc(F)cc(F)c31)CC(NS(=O)(=O)c1ccc(Cl)cc1)CC2 (stereo not drawn) [Example 4] | 0.01 to 0.03
2 | CCOC(=O)CCn1c2c(c3cc(F)ccc31)CC(NS(=O)(=O)c1ccc(Cl)cc1)CC2 (stereo not drawn) [Example 8] | 0.3 to 1
3 | NC(=O)CCn1c2c(c3cc(F)ccc31)CC(NS(=O)(=O)c1ccc(Cl)cc1)CC2 (stereo not drawn) [Example 15] | 0.01 to 0.03
